These results are taken from PMC11855827, “High-Throughput Screening of Five Compound Libraries for Anthelmintic Activity and Toxicity Leads to the Discovery of Two Flavonoid Compounds” (International Journal of Molecular Sciences, 2025).

Molecules are shown by their SMILES.

The assay has as its system C. elegans. The conditions noted are these: Table S2, C. elegans SS assay, 110 μM, averages of 4 data points.

As to `COc1cc(C(=O)OCCCCN=C(N)N)cc(OC)c1O.Cl` [Leonurine (hydrochloride)], the “Percentage of motility inhibition 0 h” value amounted to 0% and the “Percentage of motility inhibition 24 h” value was determined as 0%.

For the compound `COc1cccc(C[n+]2cn(Cc3ccccc3)c(C)c2C)c1.[Cl-]` [Lepidiline C], the “Percentage of motility inhibition 0 h” value stood at 0% and the “Percentage of motility inhibition 24 h” value turned out to be 0%.

Regarding `O=c1c(O[C@@H]2O[C@H](CO)[C@@H](O)[C@H](O)[C@H]2O[C@@H]2OC[C@@H](O)[C@H](O)[C@H]2O)c(-c2ccc(O)cc2)oc2cc(O)cc(O)c12` [Leucoside], the “Percentage of motility inhibition 0 h” value stood at 9% and the “Percentage of motility inhibition 24 h” value is 8%.

Consider `CC(C)=CCC[C@](C)(O)[C@@H]1CC=C(C)CC1` [Levomenol], for which the “Percentage of motility inhibition 0 h” value turned out to be 37% and the “Percentage of motility inhibition 24 h” value is given as 50%.

Consider `COc1c(/C=C/C(=O)c2ccc(O)cc2)ccc(O)c1CC=C(C)C` [Licochal cone C], for which the “Percentage of motility inhibition 0 h” value came out at 0% and the “Percentage of motility inhibition 24 h” value stood at 8%.

For `CC(C)=CCc1c(O)ccc(-c2coc3cc(O)cc(O)c3c2=O)c1O` [Licoisoflavone A], the “Percentage of motility inhibition 0 h” value came to 0% and the “Percentage of motility inhibition 24 h” value came to 10%.

On to `CC1(C)[C@@H](O[C@@H]2O[C@H](C(=O)O)[C@@H](O)[C@H](O)[C@H]2O[C@@H]2O[C@H](C(=O)O)[C@@H](O)[C@H](O)[C@H]2O)CC[C@]2(C)[C@H]3C(=O)C=C4[C@@H]5C[C@](C)(C(=O)O)CC[C@]5(C)CC[C@@]4(C)[C@]3(C)CC[C@@H]12` [Licorice-saponin H2], for which the “Percentage of motility inhibition 0 h” value turned out to be 0% and the “Percentage of motility inhibition 24 h” value was determined as 14%.

For `C[C@]1(C(=O)O)CC[C@]2(C)CC[C@]3(C)C(=CC(=O)[C@@H]4[C@@]5(C)CC[C@H](O[C@@H]6O[C@H](C(=O)O)[C@@H](O)[C@H](O)[C@H]6O[C@@H]6O[C@H](C(=O)O)[C@@H](O)[C@H](O)[C@H]6O)[C@](C)(CO)[C@@H]5CC[C@]43C)[C@@H]2C1` [Licoricesaponin G2], the “Percentage of motility inhibition 0 h” value stood at 2% and the “Percentage of motility inhibition 24 h” value is on record as 10%.

Regarding `COc1cc2c(cc1OC)[C@@H](Cc1ccc(O)c(Oc3cc4c(cc3OC)CCN(C)[C@@H]4Cc3ccc(O)cc3)c1)N(C)CC2` [Liensinine], the “Percentage of motility inhibition 0 h” value was 34% and the “Percentage of motility inhibition 24 h” value is 8%.

Regarding `Cc1nc(C)c(C)nc1C.Cl` [Ligustrazine (hydrochloride)], the “Percentage of motility inhibition 0 h” value is listed as 0% and the “Percentage of motility inhibition 24 h” value came out at 17%.

On to `C[C@@H]1O[C@@H](OC[C@H]2O[C@@H](Oc3cc(O)c4c(=O)cc(-c5ccc(O)cc5)oc4c3)[C@H](O[C@@H]3O[C@@H](C)[C@H](O)[C@@H](O)[C@H]3O)[C@@H](O)[C@@H]2O)[C@H](O)[C@H](O)[C@H]1O` [Ligustroflavone], for which the “Percentage of motility inhibition 0 h” value came out at 10% and the “Percentage of motility inhibition 24 h” value worked out at 8%.

For the compound `COC(=O)C1=COC(O[C@@H]2O[C@H](CO)[C@@H](O)[C@H](O)[C@H]2O)/C(=C/C(=O)O)C1CC(=O)OCCc1ccc(O)cc1` (stereo partly drawn) [Ligustrosidic acid], the “Percentage of motility inhibition 0 h” value amounted to 3% and the “Percentage of motility inhibition 24 h” value was 24%.

With `COc1ccc(-c2cc(=O)c3c(O)cc(O[C@@H]4O[C@H](CO[C@@H]5O[C@@H](C)[C@H](O)[C@@H](O)[C@H]5O)[C@@H](O)[C@H](O)[C@H]4O)cc3o2)cc1` [Linarin], the “Percentage of motility inhibition 0 h” value was determined as 15% and the “Percentage of motility inhibition 24 h” value was 23%.

Consider `CCC[C@@H]1C[C@@H](C(=O)N[C@@H]([C@H]2O[C@H](SC)[C@H](O)[C@@H](O)[C@H]2O)[C@@H](C)O)N(C)C1.Cl.O` [Lincomycin (hydrochloride hydrate)], for which the “Percentage of motility inhibition 0 h” value is 1% and the “Percentage of motility inhibition 24 h” value is given as 0%.

As for `C=C1[C@H]2C[C@H]2[C@]2(C)Cc3occ(C)c3[C@H](O)[C@@H]12` [Lindenenol], the “Percentage of motility inhibition 0 h” value was found to be 0% and the “Percentage of motility inhibition 24 h” value is on record as 19%.

With `C=C1[C@H]2C[C@H]2[C@]2(C)Cc3occ(C)c3[C@H](OC(C)=O)[C@@H]12` [Linderene acetate], the “Percentage of motility inhibition 0 h” value is on record as 8% and the “Percentage of motility inhibition 24 h” value came out at 20%.

Take `O=C1C[C@@H](c2ccc(O)cc2)Oc2cc(O)ccc21` [Liquiriti genin]: the “Percentage of motility inhibition 0 h” value is 44% and the “Percentage of motility inhibition 24 h” value was determined as 28%.

With `COc1cc2c3c(c1O)-c1ccccc1C[C@@H]3N(C)CC2` [Lirinidine], the “Percentage of motility inhibition 0 h” value came to 0% and the “Percentage of motility inhibition 24 h” value is listed as 6%.

As to `O.O.O.O.O=C([O-])CC(O)(CC(=O)[O-])C(=O)[O-].[Li+].[Li+].[Li+]` [Lithium citrate (tetrahydrate)], the “Percentage of motility inhibition 0 h” value turned out to be 13% and the “Percentage of motility inhibition 24 h” value is on record as 0%.

Regarding `CN1[C@@H](CC(=O)c2ccccc2)CCC[C@H]1CC(=O)c1ccccc1` [Lobelanine], the “Percentage of motility inhibition 0 h” value amounted to 0% and the “Percentage of motility inhibition 24 h” value stood at 5%.

As to `CN1[C@@H](CC(=O)c2ccccc2)CCC[C@H]1C[C@H](O)c1ccccc1.Cl` [Lobeline (hydrochloride)], the “Percentage of motility inhibition 0 h” value was determined as 26% and the “Percentage of motility inhibition 24 h” value was determined as 30%.

`COC(=O)C1=CO[C@@H](O)[C@@H]2[C@@H](C)[C@@H](O)C[C@H]12` [Loganetin]: the “Percentage of motility inhibition 0 h” value was 0% and the “Percentage of motility inhibition 24 h” value was found to be 2%.

For `CCn1cc(C(=O)O)c(=O)c2cc(F)c(N3CCNC(C)C3)c(F)c21.Cl` (stereo not drawn) [Lomefloxacin (hydrochloride)], the “Percentage of motility inhibition 0 h” value was found to be 39% and the “Percentage of motility inhibition 24 h” value stood at 0%.

As to `CC[C@](C)(C#N)O[C@@H]1O[C@H](CO)[C@@H](O)[C@H](O)[C@H]1O` [Lotaustralin], the “Percentage of motility inhibition 0 h” value was 11% and the “Percentage of motility inhibition 24 h” value was found to be 20%.

For the compound `COc1cc2c(cc1O)CC[N+](C)(C)[C@@H]2Cc1ccc(O)cc1.[OH-]` [Lotusine (hydroxide)], the “Percentage of motility inhibition 0 h” value is 4% and the “Percentage of motility inhibition 24 h” value is 0%.

For the compound `COc1ccc(CCC(=O)c2ccc(O)cc2)c(OC)c1` [Loureirin A], the “Percentage of motility inhibition 0 h” value was found to be 11% and the “Percentage of motility inhibition 24 h” value was 0%.

Turning to `COc1cc(OC)c(CCC(=O)c2ccc(O)cc2)c(OC)c1` [Loureirin B], the “Percentage of motility inhibition 0 h” value was found to be 10% and the “Percentage of motility inhibition 24 h” value stood at 0%.

For the compound `C[C@H](CCC(=O)O)[C@H]1CC(=O)[C@@]2(C)C3=C(C(=O)C[C@]12C)[C@@]1(C)CCC(=O)C(C)(C)[C@@H]1C[C@@H]3O` [Lucideric acid A], the “Percentage of motility inhibition 0 h” value was 0% and the “Percentage of motility inhibition 24 h” value turned out to be 20%.

On to `CC1(C)CC[C@]2(C(=O)O[C@@H]3O[C@H](CO)[C@@H](O)[C@H](O)[C@H]3O)CC[C@]3(C)C(=CC[C@@H]4[C@@]5(C)C[C@@H](O)[C@H](O[C@@H]6O[C@H](CO)[C@@H](O)[C@H](O)[C@H]6O)[C@@](C)(CO)[C@@H]5CC[C@]43C)[C@@H]2C1` [Lucyoside B], for which the “Percentage of motility inhibition 0 h” value stood at 9% and the “Percentage of motility inhibition 24 h” value is 4%.

Take `C=C(C)[C@@H]1CC[C@]2(C)CC[C@]3(C)[C@H](CC[C@@H]4[C@@]5(C)CC[C@H](OC(C)=O)C(C)(C)[C@@H]5CC[C@]43C)[C@@H]12` [Lupeol acetate]: the “Percentage of motility inhibition 0 h” value was 0% and the “Percentage of motility inhibition 24 h” value is reported as 0%.

On to `O=c1cc(-c2ccc(O)c(O)c2)oc2cc(O)cc(O[C@@H]3O[C@H](CO)[C@@H](O)[C@H](O)[C@H]3O)c12` [Luteolin 5‐O‐glucoside], for which the “Percentage of motility inhibition 0 h” value is given as 8% and the “Percentage of motility inhibition 24 h” value is given as 0%.

For `O=C(O)[C@H]1O[C@@H](Oc2cc(O)c3c(=O)cc(-c4ccc(O)c(O)c4)oc3c2)[C@H](O)[C@@H](O)[C@@H]1O` [Luteolin 7‐O‐glucuronide], the “Percentage of motility inhibition 0 h” value turned out to be 22% and the “Percentage of motility inhibition 24 h” value was 45%.

Turning to `O=C(O)[C@H]1O[C@@H](O[C@H]2[C@H](Oc3cc(O)c4c(=O)cc(-c5ccc(O)c(O)c5)oc4c3)O[C@H](C(=O)O)[C@@H](O)[C@@H]2O)[C@H](O)[C@@H](O)[C@@H]1O` [Luteolin 7‐diglucuronide], the “Percentage of motility inhibition 0 h” value came to 20% and the “Percentage of motility inhibition 24 h” value turned out to be 7%.

For `Oc1cc(O)c2ccc(-c3ccc(O)c(O)c3)[o+]c2c1.[Cl-]` [Luteolinidin (chloride)], the “Percentage of motility inhibition 0 h” value stood at 29% and the “Percentage of motility inhibition 24 h” value amounted to 8%.

With `O=C(O)[C@H]1O[C@@H](Oc2cc(-c3cc(=O)c4c(O)cc(O)cc4o3)ccc2O)[C@H](O)[C@@H](O)[C@@H]1O` [Luteolin‐3‐O‐beta‐D‐glucuronide], the “Percentage of motility inhibition 0 h” value is given as 0% and the “Percentage of motility inhibition 24 h” value is given as 26%.

For the compound `Cl.O[C@H]1[C@H]2c3cc4c(cc3CN3CCC(=C[C@@H]1O)[C@H]23)OCO4` [Lycorine (hydrochloride)], the “Percentage of motility inhibition 0 h” value came out at 15% and the “Percentage of motility inhibition 24 h” value came to 0%.

As for `CN[C@@H](Cc1c[nH]c2ccccc12)C(=O)O` [L‐(+)‐Abrine], the “Percentage of motility inhibition 0 h” value is reported as 0% and the “Percentage of motility inhibition 24 h” value was 0%.

Regarding `CN1[C@@H]2CC[C@H]1CC(OC(=O)[C@H](CO)c1ccccc1)C2.CN1[C@@H]2CC[C@H]1CC(OC(=O)[C@H](CO)c1ccccc1)C2.O=S(=O)(O)O` (stereo partly drawn) [L‐Hyoscyamine (sulfate)], the “Percentage of motility inhibition 0 h” value worked out at 18% and the “Percentage of motility inhibition 24 h” value is 9%.

Regarding `C[C@@H]1O[C@@H](O[C@H]2[C@H](O[C@H]3CC[C@@]4(C)[C@@H](CC[C@]5(C)[C@@H]4CC=C4[C@@H]6CC(C)(C)CC[C@]6(C(=O)O[C@@H]6O[C@H](CO[C@@H]7O[C@H](CO)[C@@H](O)[C@H](O)[C@H]7O)[C@@H](O)[C@H](O)[C@H]6O)CC[C@]45C)[C@]3(C)CO)OC[C@H](O)[C@@H]2O)[C@H](O)[C@H](O[C@@H]2O[C@H](CO)[C@@H](O)[C@H](O)[C@H]2O)[C@H]1O` [Macranthoidin A], the “Percentage of motility inhibition 0 h” value is 1% and the “Percentage of motility inhibition 24 h” value was 1%.
